Source: ChEMBL document CHEMBL1201862, “PubChem BioAssay data set” (2004)
Active and inactive are the calls of the source.

Columns and labels:
[1] = target: T1, Heat shock factor protein 1 (Mus musculus, UniProt P38532); assay: decrease of HSF1-responsive luciferase luminescence – cell-based, NIH3T3, dose retest, confirmation (AID 2382); type: functional;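 also: NIH3T3 fibroblasts with HSF1-driven luciferase reporter stressed by proteasome inhibitor MG132; luminescence from HSF1-driven luciferase expression after 8 hours of MG132 stress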
T1 sequence (P38532 whole entry): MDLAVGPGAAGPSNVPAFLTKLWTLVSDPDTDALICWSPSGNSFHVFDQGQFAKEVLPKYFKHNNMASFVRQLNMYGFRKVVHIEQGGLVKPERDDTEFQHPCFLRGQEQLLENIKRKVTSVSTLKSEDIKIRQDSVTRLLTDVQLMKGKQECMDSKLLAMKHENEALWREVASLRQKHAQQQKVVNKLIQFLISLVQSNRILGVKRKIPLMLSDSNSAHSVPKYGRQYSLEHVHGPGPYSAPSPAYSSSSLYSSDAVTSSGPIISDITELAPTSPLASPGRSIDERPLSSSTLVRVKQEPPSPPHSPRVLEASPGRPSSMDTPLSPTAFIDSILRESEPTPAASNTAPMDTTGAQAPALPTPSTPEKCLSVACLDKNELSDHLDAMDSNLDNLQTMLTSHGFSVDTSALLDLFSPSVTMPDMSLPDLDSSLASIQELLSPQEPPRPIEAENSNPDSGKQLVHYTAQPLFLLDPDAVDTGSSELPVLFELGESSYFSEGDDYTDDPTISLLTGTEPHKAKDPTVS

Cytochrome P450 2D6 = Cytochrome P450 2D6 (Homo sapiens, UniProt P10635);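 also: CYP2D6 member of a cytochrome P450 panel assay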
Chain of Cytochrome P450 2D6 (P10635 whole entry): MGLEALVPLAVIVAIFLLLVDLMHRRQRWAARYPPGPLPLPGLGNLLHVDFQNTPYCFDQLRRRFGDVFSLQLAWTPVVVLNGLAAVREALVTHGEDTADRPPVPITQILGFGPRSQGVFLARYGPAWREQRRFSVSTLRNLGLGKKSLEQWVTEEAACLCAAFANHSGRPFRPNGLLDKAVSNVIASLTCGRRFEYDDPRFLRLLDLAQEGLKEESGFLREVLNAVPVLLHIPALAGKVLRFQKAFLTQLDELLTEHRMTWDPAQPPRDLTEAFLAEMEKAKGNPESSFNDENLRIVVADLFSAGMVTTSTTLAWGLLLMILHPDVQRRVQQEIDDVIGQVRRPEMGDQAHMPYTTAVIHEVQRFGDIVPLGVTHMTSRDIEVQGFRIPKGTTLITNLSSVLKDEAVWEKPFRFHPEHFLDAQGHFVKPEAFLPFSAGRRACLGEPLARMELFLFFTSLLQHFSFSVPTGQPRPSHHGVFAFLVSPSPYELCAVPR

Cytochrome P450 1A2 = target: T2, Cytochrome P450 1A2 (Homo sapiens, UniProt P05177);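 also: PubChem cytochrome P450 panel assay, CYP1A2 panel member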
T2 sequence (P05177 whole entry): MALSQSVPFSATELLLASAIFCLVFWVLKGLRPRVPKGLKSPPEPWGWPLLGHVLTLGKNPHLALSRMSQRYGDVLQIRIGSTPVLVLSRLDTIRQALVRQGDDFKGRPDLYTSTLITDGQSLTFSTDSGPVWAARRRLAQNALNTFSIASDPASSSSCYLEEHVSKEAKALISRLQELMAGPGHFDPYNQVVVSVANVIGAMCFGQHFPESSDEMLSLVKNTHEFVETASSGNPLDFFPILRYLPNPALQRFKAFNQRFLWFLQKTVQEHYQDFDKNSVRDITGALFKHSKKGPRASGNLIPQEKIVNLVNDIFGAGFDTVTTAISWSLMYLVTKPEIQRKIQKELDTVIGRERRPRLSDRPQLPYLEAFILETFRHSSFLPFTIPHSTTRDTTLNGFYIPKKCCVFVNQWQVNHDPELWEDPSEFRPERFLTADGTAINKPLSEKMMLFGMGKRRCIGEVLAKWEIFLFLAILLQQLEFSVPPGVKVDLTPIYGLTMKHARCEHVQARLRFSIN

Cytochrome P450 2C19 = Cytochrome P450 2C19 (Homo sapiens, UniProt P33261); assay: Cytochrome panel assay with activity outcomes. Panel member name: p450-cyp2c19 Compounds with AC50 equal or less than 10 uM are considered active; type: functional; details: read-out: AC50
Chain of Cytochrome P450 2C19 (P33261 whole entry): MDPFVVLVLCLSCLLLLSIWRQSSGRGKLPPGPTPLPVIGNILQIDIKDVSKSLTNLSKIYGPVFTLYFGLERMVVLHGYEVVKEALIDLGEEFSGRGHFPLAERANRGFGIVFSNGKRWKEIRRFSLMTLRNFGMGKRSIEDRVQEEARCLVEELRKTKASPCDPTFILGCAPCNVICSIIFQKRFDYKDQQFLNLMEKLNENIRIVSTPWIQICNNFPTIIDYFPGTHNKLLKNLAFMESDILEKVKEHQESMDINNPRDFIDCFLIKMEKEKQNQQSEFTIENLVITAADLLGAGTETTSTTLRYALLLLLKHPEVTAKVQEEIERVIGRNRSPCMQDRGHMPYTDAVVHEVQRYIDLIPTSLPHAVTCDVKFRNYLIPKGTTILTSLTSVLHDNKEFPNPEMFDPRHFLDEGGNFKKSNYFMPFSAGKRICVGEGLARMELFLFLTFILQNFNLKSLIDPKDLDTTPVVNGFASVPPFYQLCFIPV

Cytochrome P450 3A4 = Cytochrome P450 3A4 (Homo sapiens, UniProt P08684);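 also: CYP3A4 tested as one member of a cytochrome P450 panel screen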
Chain of Cytochrome P450 3A4 (P08684 whole entry): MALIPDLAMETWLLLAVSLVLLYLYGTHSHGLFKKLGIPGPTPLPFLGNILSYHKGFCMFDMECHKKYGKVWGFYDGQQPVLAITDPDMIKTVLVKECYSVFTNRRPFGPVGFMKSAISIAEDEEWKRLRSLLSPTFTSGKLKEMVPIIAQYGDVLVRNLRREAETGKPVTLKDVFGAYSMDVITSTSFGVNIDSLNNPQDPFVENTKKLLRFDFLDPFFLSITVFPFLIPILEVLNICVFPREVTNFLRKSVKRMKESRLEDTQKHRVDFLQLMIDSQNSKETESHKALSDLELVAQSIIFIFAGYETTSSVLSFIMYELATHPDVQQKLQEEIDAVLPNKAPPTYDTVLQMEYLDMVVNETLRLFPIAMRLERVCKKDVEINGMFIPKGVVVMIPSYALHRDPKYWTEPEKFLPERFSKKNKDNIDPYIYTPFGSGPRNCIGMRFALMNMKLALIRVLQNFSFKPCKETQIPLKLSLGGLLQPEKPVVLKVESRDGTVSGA

[2] = target: T3, Replicative DNA helicase DnaB (Mycobacterium tuberculosis, UniProt P9WMR3); assay: DnaB intein splicing inhibitors, dose response, biochemical, cell-free fluorescence (AID 449749); type: functional
T3 sequence (P9WMR3 whole entry): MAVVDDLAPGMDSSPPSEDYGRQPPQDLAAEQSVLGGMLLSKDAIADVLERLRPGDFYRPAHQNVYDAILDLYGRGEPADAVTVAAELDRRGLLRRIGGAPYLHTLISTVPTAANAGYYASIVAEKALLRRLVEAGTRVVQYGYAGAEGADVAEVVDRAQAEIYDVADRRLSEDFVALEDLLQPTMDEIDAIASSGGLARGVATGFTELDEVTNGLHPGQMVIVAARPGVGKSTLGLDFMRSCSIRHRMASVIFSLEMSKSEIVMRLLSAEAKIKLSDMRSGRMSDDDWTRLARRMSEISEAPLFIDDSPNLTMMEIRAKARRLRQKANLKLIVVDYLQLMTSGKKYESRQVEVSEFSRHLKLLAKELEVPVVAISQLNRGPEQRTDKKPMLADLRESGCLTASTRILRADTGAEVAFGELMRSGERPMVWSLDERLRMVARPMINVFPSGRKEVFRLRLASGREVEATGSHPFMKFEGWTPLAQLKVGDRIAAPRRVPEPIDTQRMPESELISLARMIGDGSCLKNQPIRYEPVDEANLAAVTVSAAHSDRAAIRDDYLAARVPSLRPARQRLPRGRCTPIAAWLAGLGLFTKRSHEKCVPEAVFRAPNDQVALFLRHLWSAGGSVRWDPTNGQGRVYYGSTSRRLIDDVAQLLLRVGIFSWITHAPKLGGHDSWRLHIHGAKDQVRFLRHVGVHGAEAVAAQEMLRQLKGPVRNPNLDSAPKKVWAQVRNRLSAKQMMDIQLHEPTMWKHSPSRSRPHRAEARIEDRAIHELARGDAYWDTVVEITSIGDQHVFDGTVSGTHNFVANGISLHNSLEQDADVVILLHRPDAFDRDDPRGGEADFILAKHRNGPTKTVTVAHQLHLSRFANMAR

Protein RecA = target: T4, Protein RecA (Mycobacterium tuberculosis, UniProt P9WHJ3); assay: Fluorescence Cell-Free Homogeneous Dose Retest to Identify Inhibitors of RecA-Intein Splicing Activity. [Related pubchem assays (depositor defined):AID2097, AID2223, AID489010, AID492950]; type: functional
T4 sequence (P9WHJ3 whole entry): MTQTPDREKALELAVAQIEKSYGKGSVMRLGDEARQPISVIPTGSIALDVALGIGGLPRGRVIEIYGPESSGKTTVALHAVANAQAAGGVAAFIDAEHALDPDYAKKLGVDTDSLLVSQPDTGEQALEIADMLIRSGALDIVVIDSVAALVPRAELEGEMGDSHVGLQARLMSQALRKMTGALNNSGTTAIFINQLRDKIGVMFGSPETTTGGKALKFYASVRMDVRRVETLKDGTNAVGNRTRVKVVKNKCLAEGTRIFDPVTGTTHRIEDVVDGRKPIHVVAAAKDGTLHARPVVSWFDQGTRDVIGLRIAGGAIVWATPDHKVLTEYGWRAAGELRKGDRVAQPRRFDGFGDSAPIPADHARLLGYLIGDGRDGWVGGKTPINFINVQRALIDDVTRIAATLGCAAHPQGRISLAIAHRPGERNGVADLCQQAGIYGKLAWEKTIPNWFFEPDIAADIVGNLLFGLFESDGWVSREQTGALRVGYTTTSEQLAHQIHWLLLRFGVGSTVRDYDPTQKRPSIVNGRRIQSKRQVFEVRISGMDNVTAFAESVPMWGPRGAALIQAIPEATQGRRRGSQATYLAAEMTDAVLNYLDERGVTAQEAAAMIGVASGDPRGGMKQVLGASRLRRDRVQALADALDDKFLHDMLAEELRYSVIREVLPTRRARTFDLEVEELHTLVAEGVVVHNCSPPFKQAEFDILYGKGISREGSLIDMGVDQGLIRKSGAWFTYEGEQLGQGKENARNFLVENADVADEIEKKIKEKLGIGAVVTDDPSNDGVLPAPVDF

Cytochrome P450 2C9 = Cytochrome P450 2C9 (Homo sapiens, UniProt P11712)
Chain of Cytochrome P450 2C9 (P11712 whole entry): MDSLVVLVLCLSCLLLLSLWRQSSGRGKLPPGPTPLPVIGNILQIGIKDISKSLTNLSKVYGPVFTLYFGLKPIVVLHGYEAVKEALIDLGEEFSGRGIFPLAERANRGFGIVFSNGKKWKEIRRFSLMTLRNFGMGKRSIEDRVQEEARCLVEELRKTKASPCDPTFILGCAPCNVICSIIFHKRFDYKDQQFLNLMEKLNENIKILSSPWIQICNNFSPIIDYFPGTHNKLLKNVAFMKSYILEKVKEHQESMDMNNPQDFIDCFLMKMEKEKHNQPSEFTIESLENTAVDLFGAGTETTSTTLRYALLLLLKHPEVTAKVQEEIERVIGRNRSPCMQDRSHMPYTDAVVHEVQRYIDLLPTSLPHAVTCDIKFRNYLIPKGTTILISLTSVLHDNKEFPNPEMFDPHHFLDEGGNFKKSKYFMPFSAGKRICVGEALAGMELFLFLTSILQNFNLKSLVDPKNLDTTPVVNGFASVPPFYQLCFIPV

[3] = test system: Streptococcus sp. 'group A'; assay: Streptococcus pyogenes SK(-)GAS viability under kanamycin – luminescence, BacTiterGlo, confirmation, counter-screen for streptokinase expression inhibitor project, dose response (AID 1900); type: functional, organism-based
Streptokinase A = target: T5, Streptokinase A (Streptococcus pyogenes serotype M1, UniProt P10520); assay: viability-normalized secreted streptokinase activity reduction – plasminogen activation absorbance, OD405, dose response (AID 1914); type: functional, Streptococcus pyogenes M1 GAS;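 also: secreted streptokinase activity via plasminogen activation per viability signal from cell pellet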
T5 sequence (P10520 whole entry): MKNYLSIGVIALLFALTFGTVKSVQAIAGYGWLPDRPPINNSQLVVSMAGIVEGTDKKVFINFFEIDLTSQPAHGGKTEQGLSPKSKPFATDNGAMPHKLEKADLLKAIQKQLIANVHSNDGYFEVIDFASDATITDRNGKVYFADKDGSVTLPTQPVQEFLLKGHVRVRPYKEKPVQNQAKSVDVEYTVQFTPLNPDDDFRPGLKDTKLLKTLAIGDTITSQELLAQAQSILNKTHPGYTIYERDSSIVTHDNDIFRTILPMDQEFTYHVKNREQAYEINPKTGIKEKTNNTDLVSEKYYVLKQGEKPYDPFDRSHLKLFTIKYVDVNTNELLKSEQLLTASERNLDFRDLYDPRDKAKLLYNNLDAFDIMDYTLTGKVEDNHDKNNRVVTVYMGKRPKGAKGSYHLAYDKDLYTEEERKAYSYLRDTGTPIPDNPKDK

[4] = Trypanosoma cruzi growth suppression in host cells – NIH3T3 host cells, beta-gal luminescence, confirmation (AID 2044); type: functional, cell-based;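 also: intracellular parasites grown in NIH/3T3 mouse fibroblasts as host cells; luminescent beta-galactosidase reporter signal from transgenic T. cruzi replicating inside host cells; inhibitors lower the luminescence signal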
[5] = NIH3T3 cell viability loss – ATP luminescence, mouse fibroblasts, counter-screen, dose response (AID 2010); type: functional, cell-based;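 also: cells exposed to compound for about 90 hours before reading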
Streptococcus = assay: GAS UMAA2166 growth inhibition – luminescence, BacTiterGlo, counter-screen for streptokinase expression inhibitor project, dose response (AID 1915); type: functional, organism-based;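 also: potency for reduction of bacterial viability or growth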
[6] = Luminescence Cell-Based Dose Retest to Confirm Inhibitors of Cancer Stem Cells. [Related pubchem assays (depositor defined):AID2717, AID2721]; type: functional, Homo sapiens; details: Homo sapiens

| Structure (SMILES) | EC50 [1] | AC50 (Cytochrome P450 2D6) | also measured |
| --- | --- | --- | --- |
| COc1ccccc1CCC(=O)OCC(=O)Nc1cccc(S(=O)(=O)N2CCOCC2)c1 | > 195 µM (not active) | – | – |
| CCN(CC)CCNCc1cc(Cl)ccc1OCc1ccccc1F | > 195 µM (not active) | – | – |
| COc1ccc(-c2cc(C(=O)Nc3ccc(S(N)(=O)=O)cc3)c3ccccc3n2)cc1OC | > 195 µM (not active) | – | – |
| COc1cccc(-c2c(NC(C)=O)n(C)c3ccccc3c2=O)c1 | > 195 µM (not active) | – | – |
| Cc1cccc(OCC(=O)Nc2cccc(C(=O)NCC(C)C)c2)c1 | > 195 µM (not active) | – | – |
| O=C(CSc1ccc(-c2ccccn2)nn1)NC1CCCCC1 | > 195 µM (not active) | – | – |
| COc1ccc(-n2c(=O)c(-c3ccc(Cl)cc3)nc3cnc(N(C)C)nc32)cc1 | – | 2.51 µM (inconclusive) | AC50 (Cytochrome P450 1A2): 10 µM (inconclusive) |
| Cc1cc(C(=O)CSc2ccc(F)cc2)cc(C)c1OC(=S)N(C)C | < 0.16 µM (active) | – | – |
| COc1ccc(CCNC(=O)Cc2nn(C)c(=O)c3ccccc23)cc1OC | > 195 µM (not active) | – | – |
| CN1CCc2c(sc3c2c(=O)n(-c2ccc(Cl)cc2)c2nncn32)C1 | > 195 µM (not active) | – | – |
| CC(C)=CCN1CCN(Cc2cc(F)ccc2-n2nc(C)cc2C)CC1CCO (centres undefined) | > 195 µM (not active) | – | – |
| CCOC(=O)c1ccc(N/C=C/C(=O)c2ccc(OC)cc2)cc1 | > 195 µM (not active) | – | AC50 (Cytochrome P450 2C19): 2.82 µM (inconclusive); AC50 (Cytochrome P450 1A2): 22.4 µM (inconclusive); AC50 (Cytochrome P450 3A4): 6.31 µM (inconclusive) |
| CCC(C)[C@H](NC(=O)NC1CCN(Cc2ccccc2)CC1)C(=O)OC (some centres undefined) | – | 28.2 µM (inconclusive) | AC50 [2]: 39.9 µM (active); EC50 (Protein RecA): 2.96 µM (active); AC50 (Cytochrome P450 2C9): 2.24 µM (inconclusive) |
| c1cnc2ccc(C(c3nnnn3C3CCCC3)N3CCN4CCCC4C3)cc2c1 (centres undefined) | – | 22.4 µM (inconclusive) | AC50 (Cytochrome P450 2C19): 25.1 µM (inconclusive); AC50 (Cytochrome P450 3A4): 6.31 µM (inconclusive); AC50 (Cytochrome P450 2C9): 14.1 µM (inconclusive) |
| CCS(=O)(=O)N1CCN(C(=O)c2ccccc2)CC1 | > 195 µM (not active) | – | – |
| COc1nc(N)c(C#N)c(-c2ccc(N(C)CCC#N)cc2)c1C#N | 15.6 µM (active) | – | – |
| Cc1cc(O)nc(CCl)n1 | > 195 µM (not active) | – | – |
| C#C[C@@]1(O)CC[C@@H]2[C@@H]3CCC4=C(CCC(=O)C4)[C@H]3CC[C@]21C | – | 15.8 µM (inconclusive) | AC50 (Cytochrome P450 1A2): 12.6 µM (inconclusive) |
| CCOc1ccc(NCc2nnc(SCc3ccccc3Cl)n2-c2ccccc2)cc1 | > 195 µM (not active) | 25.1 µM (inconclusive) | – |
| Cc1cc(C2(c3cc(C)c(NC(=O)CN4CCOCC4)c(C)c3)CCCCC2)cc(C)c1NC(=O)CN1CCOCC1 | > 195 µM (not active) | – | – |
| Cc1ccc(S(=O)(=O)N(C)CC(=O)N2CCc3ccccc32)cc1 | > 195 µM (not active) | – | – |
| Cc1ccnc(NC(c2ccsc2)c2ccc3ccc(C)nc3c2O)c1 (centres undefined) | > 195 µM (not active) | – | EC50 [3]: 10.6 µM (active); EC50 (Streptokinase A): > 150 µM (not active); EC50 [4]: 1.64 µM (active); EC50 [5]: 9.38 µM (active); EC50 (Streptococcus): 20.5 µM (active) |
| CCC1CCCCN1CCCNC(=O)CSc1nc2nc(C)c(Cc3ccc(C)cc3)c(C)n2n1 (centres undefined) | > 195 µM (not active) | – | – |
| CCOC(=O)c1c(NC(=O)COC(=O)c2nccnc2N)sc(C(=O)N(C)C)c1C | > 195 µM (not active) | – | – |
| CCOc1nnc(C)c2c(C)n(-c3ccc(Cl)cc3)nc12 | – | 25.1 µM (inconclusive) | AC50 (Cytochrome P450 2C19): 31.6 µM (inconclusive); AC50 (Cytochrome P450 2C9): 25.1 µM (inconclusive) |
| CC(C)Cn1cnc2c(SCc3ccc(Cl)cc3Cl)nc(N)nc21 | – | 7.94 µM (inconclusive) | AC50 (Cytochrome P450 1A2): 1.26 µM (inconclusive); AC50 (Cytochrome P450 2C9): 7.94 µM (inconclusive) |
| CC(C)(C)C1CCc2c(sc(NC(=O)CSc3nc[nH]n3)c2C#N)C1 (centres undefined) | > 195 µM (not active) | – | AC50 [6]: 4.46 µM (active) |
| C=CCn1cc(Cl)c(=O)n(CC=C)c1=O | – | 0.562 µM (inconclusive) | AC50 (Cytochrome P450 1A2): 14.1 µM (inconclusive); AC50 (Cytochrome P450 3A4): 25.1 µM (inconclusive) |
| Cc1c(/N=C/c2ccco2)n(Cc2ccccc2)c2ccccc12 | – | 4.47 µM (inconclusive) | AC50 (Cytochrome P450 2C19): 2.82 µM (inconclusive) |
